Measured values reported in ChEMBL document CHEMBL5316313, “Discovery of Novel 3-Phenylpiperidine Derivatives Targeting the β-Catenin/B-Cell Lymphoma 9 Interaction as a Single Agent and in Combination with the Anti-PD-1 Antibody for the Treatment of Colorectal Cancer” (J Med Chem, 2023).
Calls of active or inactive are those of the source. No cut-off for these calls is given here.

Experiments:
[1] = test system: SW480; assay: cells; conditions: Homo sapiens, SW480, 48 h
[2] = test system: HEK293; assay: cells; conditions: Homo sapiens, HEK293, 48 h
[3] = test system: CT26; assay: Antitumor activity in mouse CT26 cells xenografted in BALB/c mouse assessed as increase in GZMB mRNA expression level in tumor at 30 mg/kg, ip QD by qRT-PCR analysis; format: functional, organism-based
[4] = test system: RKO; assay: cells; conditions: Homo sapiens, 48 h
[5] = test system: CT26; assay: cells; conditions: Mus musculus, CT26, 48 h
[6] = test system: HCT-116; assay: cells; conditions: Homo sapiens, HCT-116, 48 h
[7] = test system: A549; assay: cells; conditions: Homo sapiens, A549, 48 h
[8] = target: T1, Beta catenin-BCL9 (Mus musculus, UniProt Q02248+Q9D219); assay: Inhibition of beta-catenin/BCL9 protein-protein interaction in Wnt-dependent mouse CT26 cells assessed as reduction in Axin2 expression level by qRT-PCR assay; format: cell-based
T1 sequence (Q02248 whole entry): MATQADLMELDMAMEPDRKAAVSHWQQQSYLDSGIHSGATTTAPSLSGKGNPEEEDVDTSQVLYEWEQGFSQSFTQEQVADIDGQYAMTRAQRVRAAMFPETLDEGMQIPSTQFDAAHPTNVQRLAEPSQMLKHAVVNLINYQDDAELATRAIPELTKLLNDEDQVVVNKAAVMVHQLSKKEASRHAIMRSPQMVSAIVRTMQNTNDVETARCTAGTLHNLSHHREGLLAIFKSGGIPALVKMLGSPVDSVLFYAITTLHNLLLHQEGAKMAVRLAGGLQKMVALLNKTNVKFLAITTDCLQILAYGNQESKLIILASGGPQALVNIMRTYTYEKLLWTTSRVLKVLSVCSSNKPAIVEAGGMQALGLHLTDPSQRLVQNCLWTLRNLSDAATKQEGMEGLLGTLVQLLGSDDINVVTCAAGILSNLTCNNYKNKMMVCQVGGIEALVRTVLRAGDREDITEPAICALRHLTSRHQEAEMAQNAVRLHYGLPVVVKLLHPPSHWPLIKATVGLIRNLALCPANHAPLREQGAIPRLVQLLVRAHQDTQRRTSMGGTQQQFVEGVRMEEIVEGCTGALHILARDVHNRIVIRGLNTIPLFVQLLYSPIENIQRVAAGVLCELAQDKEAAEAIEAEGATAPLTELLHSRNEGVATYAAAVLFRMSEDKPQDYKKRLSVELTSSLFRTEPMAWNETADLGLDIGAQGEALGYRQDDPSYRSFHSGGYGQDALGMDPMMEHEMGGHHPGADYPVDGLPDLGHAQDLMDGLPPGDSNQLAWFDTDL
T1 sequence (Q9D219 whole entry): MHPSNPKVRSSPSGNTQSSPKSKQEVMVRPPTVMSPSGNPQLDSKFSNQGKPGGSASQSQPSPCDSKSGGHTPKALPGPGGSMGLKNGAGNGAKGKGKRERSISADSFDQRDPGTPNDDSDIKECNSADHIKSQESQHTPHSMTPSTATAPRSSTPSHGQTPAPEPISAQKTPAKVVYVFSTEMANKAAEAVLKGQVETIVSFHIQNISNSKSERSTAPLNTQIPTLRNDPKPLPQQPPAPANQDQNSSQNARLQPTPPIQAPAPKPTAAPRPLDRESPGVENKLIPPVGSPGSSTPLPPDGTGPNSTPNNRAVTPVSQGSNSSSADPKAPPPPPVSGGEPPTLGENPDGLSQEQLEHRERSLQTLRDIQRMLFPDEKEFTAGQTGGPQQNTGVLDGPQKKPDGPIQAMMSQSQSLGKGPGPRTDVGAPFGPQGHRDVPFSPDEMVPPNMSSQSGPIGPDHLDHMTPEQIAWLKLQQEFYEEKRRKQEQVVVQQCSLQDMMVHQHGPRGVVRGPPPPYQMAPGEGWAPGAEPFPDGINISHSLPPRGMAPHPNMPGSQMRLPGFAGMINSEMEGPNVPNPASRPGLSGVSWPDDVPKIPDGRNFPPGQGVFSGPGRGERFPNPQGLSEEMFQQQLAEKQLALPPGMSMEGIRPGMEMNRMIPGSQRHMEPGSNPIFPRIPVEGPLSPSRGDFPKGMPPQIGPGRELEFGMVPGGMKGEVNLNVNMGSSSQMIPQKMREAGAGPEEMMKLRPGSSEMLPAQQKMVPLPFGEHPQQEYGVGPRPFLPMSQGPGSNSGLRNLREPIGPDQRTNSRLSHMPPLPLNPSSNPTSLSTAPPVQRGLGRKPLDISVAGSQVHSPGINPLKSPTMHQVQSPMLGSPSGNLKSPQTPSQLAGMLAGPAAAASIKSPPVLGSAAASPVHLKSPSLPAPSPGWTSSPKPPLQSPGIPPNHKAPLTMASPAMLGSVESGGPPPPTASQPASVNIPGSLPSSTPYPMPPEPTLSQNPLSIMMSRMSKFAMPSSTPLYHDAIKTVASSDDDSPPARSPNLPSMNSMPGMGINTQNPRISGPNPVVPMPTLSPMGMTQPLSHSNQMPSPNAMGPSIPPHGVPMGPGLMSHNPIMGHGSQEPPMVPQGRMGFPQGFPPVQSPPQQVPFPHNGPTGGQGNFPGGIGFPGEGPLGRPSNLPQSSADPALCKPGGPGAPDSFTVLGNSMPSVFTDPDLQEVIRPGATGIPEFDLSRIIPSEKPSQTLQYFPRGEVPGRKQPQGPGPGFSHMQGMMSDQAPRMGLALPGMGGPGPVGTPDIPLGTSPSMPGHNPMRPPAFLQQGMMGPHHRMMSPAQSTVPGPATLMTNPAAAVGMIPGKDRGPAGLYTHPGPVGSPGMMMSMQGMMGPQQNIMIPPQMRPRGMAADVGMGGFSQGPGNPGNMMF

IC50 [1] | IC50 [4] | IC50 [5] | IC50 [6] | IC50 [7] | IC50 [8] | SMILES | IC50 [2] | Activity [3]
16.2 µM | > 40 µM | 4.74 µM | 9.25 µM | > 40 µM | 0.66 µM | CC(C)c1ccc(-c2cccc(S(=O)(=O)N3CCCC(c4cccc(OC(C)(C)C(=O)NS(=O)(=O)c5ccc(C(F)(F)F)cc5)c4)C3)c2)cc1 (stereo not given) | > 40 µM | Active
8.43 µM | 77.5 µM | 18.6 µM | 32.7 µM | 54.1 µM | 4.62 µM | O=C1[C@H](Cc2ccc(O)cc2)N2C(=O)CCN(C(=O)NCc3ccccc3)[C@H]2CN1Cc1cccc2ccccc12 | 75.4 µM | 
